This passage reports inhibition results from patent publication US8952034B2, “Fused heterocyclic compounds as ion channel modulators” (Gilead Sciences, Inc., priority 2009, dated 2015).

Chain of wild-type human cardiac sodium channel, hNav1.5 (Q14524 whole entry): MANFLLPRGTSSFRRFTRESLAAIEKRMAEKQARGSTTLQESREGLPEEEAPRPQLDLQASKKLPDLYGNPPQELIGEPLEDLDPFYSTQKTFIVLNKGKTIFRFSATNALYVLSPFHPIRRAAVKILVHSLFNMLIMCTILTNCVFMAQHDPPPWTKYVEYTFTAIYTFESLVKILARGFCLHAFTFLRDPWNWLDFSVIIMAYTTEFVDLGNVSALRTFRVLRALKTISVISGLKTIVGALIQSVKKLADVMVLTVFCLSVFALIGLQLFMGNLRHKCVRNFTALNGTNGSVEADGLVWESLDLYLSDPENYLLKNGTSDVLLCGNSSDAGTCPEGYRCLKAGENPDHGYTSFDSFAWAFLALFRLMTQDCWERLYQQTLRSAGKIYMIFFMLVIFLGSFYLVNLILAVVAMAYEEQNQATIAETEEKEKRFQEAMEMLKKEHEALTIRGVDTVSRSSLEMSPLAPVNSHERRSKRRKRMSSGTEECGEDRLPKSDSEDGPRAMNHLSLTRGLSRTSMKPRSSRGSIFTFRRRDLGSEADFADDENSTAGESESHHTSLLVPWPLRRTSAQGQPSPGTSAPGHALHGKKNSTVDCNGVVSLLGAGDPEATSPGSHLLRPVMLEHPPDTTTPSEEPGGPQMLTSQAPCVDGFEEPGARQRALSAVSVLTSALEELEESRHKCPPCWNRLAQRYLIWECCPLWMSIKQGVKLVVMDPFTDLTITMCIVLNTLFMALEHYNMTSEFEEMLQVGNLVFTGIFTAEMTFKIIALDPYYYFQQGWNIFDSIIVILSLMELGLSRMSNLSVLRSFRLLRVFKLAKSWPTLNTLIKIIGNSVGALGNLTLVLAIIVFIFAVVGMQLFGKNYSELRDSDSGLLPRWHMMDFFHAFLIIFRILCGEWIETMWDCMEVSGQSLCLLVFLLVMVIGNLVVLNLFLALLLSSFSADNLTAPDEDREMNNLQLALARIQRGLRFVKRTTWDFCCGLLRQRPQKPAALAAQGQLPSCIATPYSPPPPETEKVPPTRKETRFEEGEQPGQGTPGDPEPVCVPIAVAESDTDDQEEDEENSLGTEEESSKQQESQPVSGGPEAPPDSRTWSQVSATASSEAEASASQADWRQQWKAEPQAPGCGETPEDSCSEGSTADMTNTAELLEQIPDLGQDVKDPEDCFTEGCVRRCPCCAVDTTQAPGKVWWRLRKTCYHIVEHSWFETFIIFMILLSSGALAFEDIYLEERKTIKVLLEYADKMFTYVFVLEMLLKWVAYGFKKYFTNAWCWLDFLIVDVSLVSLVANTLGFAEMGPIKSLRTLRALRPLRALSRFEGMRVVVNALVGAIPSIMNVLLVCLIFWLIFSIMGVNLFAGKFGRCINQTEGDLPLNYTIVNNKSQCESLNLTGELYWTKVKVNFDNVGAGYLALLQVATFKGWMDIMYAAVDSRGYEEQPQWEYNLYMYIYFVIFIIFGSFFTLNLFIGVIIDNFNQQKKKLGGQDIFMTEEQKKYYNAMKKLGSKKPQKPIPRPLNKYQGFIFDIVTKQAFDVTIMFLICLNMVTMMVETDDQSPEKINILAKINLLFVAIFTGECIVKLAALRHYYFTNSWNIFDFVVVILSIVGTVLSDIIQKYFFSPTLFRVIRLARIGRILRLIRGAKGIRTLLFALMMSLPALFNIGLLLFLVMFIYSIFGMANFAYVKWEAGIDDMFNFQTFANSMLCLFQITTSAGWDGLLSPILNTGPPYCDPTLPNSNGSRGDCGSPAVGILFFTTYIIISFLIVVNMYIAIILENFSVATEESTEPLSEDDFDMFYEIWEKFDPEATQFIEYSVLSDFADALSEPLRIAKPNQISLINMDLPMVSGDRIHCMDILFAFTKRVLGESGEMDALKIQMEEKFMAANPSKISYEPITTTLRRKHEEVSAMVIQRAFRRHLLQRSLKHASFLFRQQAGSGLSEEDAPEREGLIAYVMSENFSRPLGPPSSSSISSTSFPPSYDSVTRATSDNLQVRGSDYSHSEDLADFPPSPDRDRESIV

This assay addresses wild-type human cardiac sodium channel, hNav1.5 (Homo sapiens, UniProt Q14524). Nature of the assay: Late INa screening assay (automated whole cell patch clamp, PatchXpress). As to conditions: compound at 1 μM; HEK293 cells expressing hNav1.5; late INa generated with 10 μM Tefluthrin (or 50 nM ATX II); read-out: LateINa_1 uM (percent block of late INa). The format is cell-based. Summed up:
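Late sodium current through wild-type human hNav1.5 stably expressed in HEK293 cells (no beta subunits) was recorded by automated whole-cell patch clamp on a PatchXpress 7000A at 24-27° C. Late INa was induced with 10 μM Tefluthrin or 50 nM ATX II. Cells were stepped from −120 mV to −20 mV for 250 ms at 0.1 Hz, and percent block was normalized to current in Na-free extracellular solution.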
As for `FC1(F)CCN(c2nnc3ccc(-c4ccc(OC(F)(F)F)cc4)cn23)CC1` [BHN-260, 3-(4,4-difluoropiperidin-1-yl)-6-[4-(trifluoromethoxy)phenyl][1,2,4]triazolo[4,3-a]pyridine], the inhibition at 1 µM was determined as 38.5%.
With `N#Cc1cccc(COC(F)(F)c2nnc3ccc(-c4ccc(OC(F)(F)F)cc4)cn23)c1` [BHN-261, 3-[(difluoro{6-[4-(trifluoromethoxy)phenyl][1,2,4]triazolo[4,3-a]pyridin-3-yl}methoxy)methyl]benzonitrile] the figure was 56.8%; with `COc1ccccc1SCC(C)COC(F)(F)c1nnc2ccc(-c3ccc(OC(F)(F)F)cc3)cn12` (stereo not drawn) [BHN-262, 3-(difluoro{3-[(2-methoxyphenyl)sulfanyl]-2-methylpropoxy}methyl)-6-[4-(trifluoromethoxy)phenyl][1,2,4]triazolo[4,3-a]pyridine], 47.8%; with `O=C(NCC(F)(F)c1nnc2ccc(-c3ccc(OC(F)(F)F)cc3)cn12)Nc1ccccc1` [BHN-263, 1-(2,2-difluoro-2-{6-[4-(trifluoromethoxy)phenyl][1,2,4]triazolo[4,3-a]pyridin-3-yl}ethyl)-3-phenylurea], 22.6%.
With `COc1ccc(N2CCN(CCOC(F)(F)c3nnc4ccc(-c5ccc(OC(F)(F)F)cc5)cn34)CC2)cc1` [BHN-264, 3-(difluoro{2-[4-(4-methoxyphenyl)piperazin-1-yl]ethoxy}methyl)-6-[4-(trifluoromethoxy)phenyl][1,2,4]triazolo[4,3-a]pyridine] the figure was 54.3%.
With `NC(=O)c1nnc2ccc(-c3ccc(OC(F)(F)F)cc3)cn12` [BHN-265, 6-[4-(trifluoromethoxy)phenyl][1,2,4]triazolo[4,3-a]pyridine-3-carboxamide] the figure was 15.3%; with `Cn1nc(C2CC2)cc1COC(F)(F)c1nnc2ccc(-c3ccc(OC(F)(F)F)cc3)cn12` [BHN-266, 3-{[(3-cyclopropyl-1-methyl-1H-pyrazol-5-yl)methoxy](difluoro)methyl}-6-[4-(trifluoromethoxy)phenyl][1,2,4]triazolo[4,3-a]pyridine], 50.2%.
As to `OC(COCC(F)(F)c1nnc2ccc(-c3ccc(OC(F)(F)F)cc3)cn12)COc1ccccc1Cl` (stereo not drawn) [BHN-267, 1-(2-chlorophenoxy)-3-(2,2-difluoro-2-{6-[4-(trifluoromethoxy)phenyl][1,2,4]triazolo[4,3-a]pyridin-3-yl}ethoxy)propan-2-ol], the inhibition at 1 µM amounted to 26.5%.
`Cc1cc(-c2ccc(OC(F)(F)F)cc2)cn2nnnc12` [BHN-268, 8-methyl-6-[4-(trifluoromethoxy)phenyl]tetrazolo[1,5-a]pyridine]: the inhibition at 1 µM is 43.2%.
`Cc1c(-c2ccc(OC(F)(F)F)cc2)ccc2nnnn12` [BHN-269, 5-methyl-6-[4-(trifluoromethoxy)phenyl]tetrazolo[1,5-a]pyridine]: the inhibition at 1 µM was 44.7%.
Turning to `Clc1ccc(Oc2ccc(-c3ccc4nnnn4n3)cc2)cc1` [BHN-270, 6-[4-(4-chlorophenoxy)phenyl]tetrazolo[1,5-b]pyridazine], the inhibition at 1 µM is 21.7%.
In the case of `FC(F)(F)c1nnc2ccc(-c3ccc(OC(F)(F)c4cccnc4)cc3)cn12` [BHN-271, 6-{4-[difluoro(pyridin-3-yl)methoxy]phenyl}-3-(trifluoromethyl)[1,2,4]triazolo[4,3-a]pyridine] it was 19.9%.
Take `FC(F)(F)c1nnc2ccc(-c3ccc(OC(F)(F)c4ccccc4)cc3)cn12` [BHN-272, 6-{4-[difluoro(phenyl)methoxy]phenyl}-3-(trifluoromethyl)[1,2,4]triazolo[4,3-a]pyridine]: the inhibition at 1 µM stood at 64.9%.
With `Cc1ccccc1Oc1nnc2ccc(-c3ccc(OC(F)(F)F)cc3)cn12` [BHN-273, 3-(2-methylphenoxy)-6-[4-(trifluoromethoxy)phenyl][1,2,4]triazolo[4,3-a]pyridine] the figure was 68.7%; with `Cc1ccc(C)c(OCC(O)COCC(F)(F)c2nnc3ccc(-c4ccc(OC(F)(F)F)cc4)cn23)c1` (stereo not drawn) [BHN-274, 1-(2,2-difluoro-2-{6-[4-(trifluoromethoxy)phenyl][1,2,4]triazolo[4,3-a]pyridin-3-yl}ethoxy)-3-(2,5-dimethylphenoxy)propan-2-ol], 38.9%.
With `FC(F)(F)c1ccc(-c2ccc3nnc(C(F)(F)OCC4CC4)n3c2)cn1` [BHN-275, 3-[(cyclopropylmethoxy)(difluoro)methyl]-6-[6-(trifluoromethyl)pyridin-3-yl][1,2,4]triazolo[4,3-a]pyridine] the figure was 28.6%; with `N#Cc1cc(Cl)ccc1Nc1ccc(-c2ccc3nnc(C(F)(F)F)n3c2)cc1` [BHN-276, 5-chloro-2-({4-[3-(trifluoromethyl)[1,2,4]triazolo[4,3-a]pyridin-6-yl]phenyl}amino)benzonitrile], 16.2%; with `COCc1c(-c2ccc(OC(F)(F)F)cc2)ccc2nnc(C(F)(F)F)n12` [BHN-277, 5-(methoxymethyl)-6-[4-(trifluoromethoxy)phenyl]-3-(trifluoromethyl)[1,2,4]triazolo[4,3-a]pyridine], 38%.
For the molecule `CN(c1ccccc1)c1ccc(-c2ccc3nnc(C(F)(F)F)n3c2)cc1` [BHN-278, N-methyl-N-phenyl-4-[3-(trifluoromethyl)[1,2,4]triazolo[4,3-a]pyridin-6-yl]aniline], the inhibition at 1 µM stood at 54.2%.
Take `N#CCOCc1c(-c2ccc(OC(F)(F)F)cc2)ccc2nnc(C(F)(F)F)n12` [BHN-279, ({6-[4-(trifluoromethoxy)phenyl]-3-(trifluoromethyl)[1,2,4]triazolo[4,3-a]pyridin-5-yl}methoxy)acetonitrile]: the inhibition at 1 µM was 19.1%.
Regarding `N#Cc1ccc(C(F)(F)Oc2ccc(-c3ccc4nnc(C(F)(F)F)n4c3)cc2)cc1` [BHN-280, 4-(difluoro{4-[3-(trifluoromethyl)[1,2,4]triazolo[4,3-a]pyridin-6-yl]phenoxy}methyl)benzonitrile], the inhibition at 1 µM turned out to be 63.7%.
In the case of `FC(F)(F)Oc1ccc(-c2ccc3nnc(C(F)(F)OCc4cccc5ncccc45)n3c2)cc1` [BHN-281, 5-[(difluoro{6-[4-(trifluoromethoxy)phenyl][1,2,4]triazolo[4,3-a]pyridin-3-yl}methoxy)methyl]quinoline] it was 53.9%; in that of `CC(OC(F)(F)c1nnc2ccc(-c3ccc(OC(F)(F)F)cc3)cn12)c1cnc2ccccc2c1` (stereo not drawn) [BHN-282, 3-[1-(difluoro{6-[4-(trifluoromethoxy)phenyl][1,2,4]triazolo[4,3-a]pyridin-3-yl}methoxy)ethyl]quinoline], 62.7%.
In the case of `FC(F)(F)c1nnc2ccc(-c3ccc(Nc4ccc(Cl)cc4)cc3)cn12` [BHN-283, 4-chloro-N-{4-[3-(trifluoromethyl)[1,2,4]triazolo[4,3-a]pyridin-6-yl]phenyl}aniline] it was 27.2%; in that of `Fc1ccc(Nc2ccc(-c3ccc4nnc(C(F)(F)F)n4c3)cc2)cc1` [BHN-284, 4-fluoro-N-{4-[3-(trifluoromethyl)[1,2,4]triazolo[4,3-a]pyridin-6-yl]phenyl}aniline], 31.4%.
In the case of `Cc1cccc(C)c1OCCOC(F)(F)c1nnc2ccc(-c3ccc(OC(F)(F)F)cc3)cn12` [BHN-285, 3-{[2-(2,6-dimethylphenoxy)ethoxy](difluoro)methyl}-6-[4-(trifluoromethoxy)phenyl][1,2,4]triazolo[4,3-a]pyridine] it was 68%; in that of `FC(F)(F)Oc1ccc(-c2ccc3nnc(C(F)(F)OCc4cnn(-c5ccccc5)c4)n3c2)cc1` [BHN-287, 3-{difluoro[(1-phenyl-1H-pyrazol-4-yl)methoxy]methyl}-6-[4-(trifluoromethoxy)phenyl][1,2,4]triazolo[4,3-a]pyridine], 47.1%.
As for `FC(F)(F)Oc1ccc(-c2ccc3nnc(C(F)(F)OCc4coc(-c5ccc(C(F)(F)F)cc5)n4)n3c2)cc1` [BHN-288, 3-[difluoro({2-[4-(trifluoromethyl)phenyl]-1,3-oxazol-4-yl}methoxy)methyl]-6-[4-(trifluoromethoxy)phenyl][1,2,4]triazolo[4,3-a]pyridine], the inhibition at 1 µM worked out at 39.2%.
With `Cc1cc(COC(F)(F)c2nnc3ccc(-c4ccc(OC(F)(F)F)cc4)cn23)c2ccccc2n1` [BHN-289, 4-[(difluoro{6-[4-(trifluoromethoxy)phenyl][1,2,4]triazolo[4,3-a]pyridin-3-yl}methoxy)methyl]-2-methylquinoline] the figure was 47.9%; with `FC(F)(F)Oc1ccc(-c2ccc3nnc(C(F)(F)OCc4cc(C(F)(F)F)nc5ccccc45)n3c2)cc1` [BHN-290, 4-[(difluoro{6-[4-(trifluoromethoxy)phenyl][1,2,4]triazolo[4,3-a]pyridin-3-yl}methoxy)methyl]-2-(trifluoromethyl)quinoline], 34.6%.
In the case of `FC(F)(F)Oc1ccc(-c2ccc3nnc(C(F)(F)OCc4ccc5nccnc5c4)n3c2)cc1` [BHN-291, 6-[(difluoro{6-[4-(trifluoromethoxy)phenyl][1,2,4]triazolo[4,3-a]pyridin-3-yl}methoxy)methyl]quinoxaline], the inhibition at 1 µM was 47%.
As to `O=[N+]([O-])c1ccc(-c2ccc3nnc(C(F)(F)F)n3c2)c(Cl)c1` [BHN-292, 6-(2-chloro-4-nitrophenyl)-3-(trifluoromethyl)[1,2,4]triazolo[4,3-a]pyridine], the inhibition at 1 µM was 26%.
In the case of `CC#CCOC(F)(F)c1nnc2ccc(-c3ccc(OC(F)(F)F)cc3)cn12` [BHN-293, 3-[(but-2-yn-1-yloxy)(difluoro)methyl]-6-[4-(trifluoromethoxy)phenyl][1,2,4]triazolo[4,3-a]pyridine] it was 80.6%.
